The values below come from patent US10597696B2, “Detection of Niemann-Pick disease comprising detection of lysozyme and cathepsins” (UNIVERSITY OF NOTRE DAME DU LAC, priority 2013, dated 2020).

Each structure is given as a SMILES string.

In assay [1] the test system is NPC patients. Briefly: Plasma lysozyme level in Miglustat-treated NPC patients. Format: in vivo, human. The note with it: Miglustat-treated NPC samples vs untreated NPC and healthy controls. The source says: (§1) A major hurdle is that inflammatory products of cerebral disease are not easily detected in blood. Inflammation in multiple organs and heterogeneity in disease present additional challenges in distinguishing the extent to which a blood based marker reflects disease in brain or other afflicted organs. We utilized murine models of the monogenetic disorder Niemann Pick Type C (NPC) that present aggressive forms of cerebral and liver inflammatory disease to identify secretory biomarkers for neuroinflammation. […] We utilized 2-hydroxypropyl-beta-cyclodextrin (HPβCD; an emerging therapeutic) administered intraperitoneally in mice, which abrogates inflammatory pathology in the liver but has limited effect on the brain. By analyzing the corresponding effects on inflammatory plasma proteins, we identified cathepsin S as a lead indicator of liver disease. In contrast lysozyme was a marker of both brain and liver disease. The study was extended on human samples. The level of lysozyme and cathepsin S were determined in the plasma samples from healthy individuals (age and gender matched), untreated NPC patients and Miglustat (also known as Zavesca) treated NPC patients. […] The plasma concentration of these two markers in untreated and Miglustat treated NPC samples when analyzed together yielded a composite score to assess extent of neurodegeneration. […]

In assay [2] the test system is NPC patients. Briefly: Plasma cathepsin S level in Miglustat-treated NPC patients. It is filed as in vivo, human. The note with it: patients treated with Miglustat vs untreated NPC patients.
Source text: as §1

Consider `CCCCN1C[C@H](O)[C@@H](O)[C@H](O)[C@H]1CO` [Miglustat], for which the plasma lysozyme level result with NPC patients [1] was “reduced compared to untreated NPC patients and were equivalent to healthy controls”. In the assay on NPC patients [2], the “plasma cathepsin S” value was “further elevated”.
